Laboratory results reported in ChEMBL document CHEMBL1201862, “PubChem BioAssay data set” (2004).
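Interpolation was linear, between the two tested concentrations surrounding the appropriate level; five concentrations were tested over 48 hours in 96-well plates. GI50 = concentration required for 50% inhibition of growth.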 Calls of active or inactive are those of the source. Rule as the data show it: active = GI50 up to about 1.1 µM and inactive = higher.

Tests used:
Assay in all cases: NCI tumour cell line growth inhibition, 48 h
786-0 = test system: 786-0
A498 = test system: A498
A549 = test system: A549
ACHN = test system: ACHN
BT-549 = test system: BT-549
CAKI-1 = test system: CAKI-1
CCRF-CEM = test system: CCRF-CEM
COLO 205 = test system: COLO 205
DU-145 = test system: DU-145
EKVX = test system: EKVX
HCC 2998 = test system: HCC 2998
HCT-116 = test system: HCT-116
HCT-15 = test system: HCT-15
HL-60 = test system: HL-60
HOP-62 = test system: HOP-62
HOP-92 = test system: HOP-92
HT-29 = test system: HT-29
Hs-578T = test system: Hs-578T
IGROV-1 = test system: IGROV-1
K562 = test system: K562
KM12 = test system: KM12
M14 = test system: M14
MDA-MB-231 = test system: MDA-MB-231
MDA-MB-435 = test system: MDA-MB-435
MOLT-4 = test system: MOLT-4
NCI-H226 = test system: NCI-H226
NCI-H23 = test system: NCI-H23
NCI-H460 = test system: NCI-H460
NCI-H522 = test system: NCI-H522
NCI/ADR-RES = test system: NCI/ADR-RES
OVCAR-3 = test system: OVCAR-3
OVCAR-4 = test system: OVCAR-4
OVCAR-5 = test system: OVCAR-5
OVCAR-8 = test system: OVCAR-8
PC-3 = test system: PC-3
RPMI-8226 = test system: RPMI-8226
RXF 393 = test system: RXF 393
SF-268 = test system: SF-268
SF-295 = test system: SF-295
SF-539 = test system: SF-539
SK-MEL-28 = test system: SK-MEL-28
SK-MEL-2 = test system: SK-MEL-2
SK-MEL-5 = test system: SK-MEL-5
SN12C = test system: SN12C
SNB-19 = test system: SNB-19
SNB-75 = test system: SNB-75
SW-620 = test system: SW-620
T47D = test system: T47D
TK-10 = test system: TK-10
U-251 = test system: U-251
UACC-257 = test system: UACC-257
UACC-62 = test system: UACC-62
UO-31 = test system: UO-31
LOX IMVI = test system: LOX IMVI
MCF7 = test system: MCF7
MDA-N = test system: MDA-N
Malme-3M = test system: Malme-3M
SK-OV-3 = test system: SK-OV-3
SR = test system: SR

SMILES: O=C(CC(=O)N1N=C(N2c3ccccc3Sc3ccccc32)CC1c1ccccc1)Nc1ccccc1Cl (stereo not given)
- GI50 (786-0): > 100 µM (inactive)
- GI50 (A498): > 100 µM (inactive)
- GI50 (A549): > 100 µM (inactive)
- GI50 (ACHN): > 100 µM (inactive)
- GI50 (BT-549): > 100 µM (inactive)
- GI50 (CAKI-1): > 100 µM (inactive)
- GI50 (CCRF-CEM): > 100 µM (inactive)
- GI50 (COLO 205): > 100 µM (inactive)
- GI50 (DU-145): > 100 µM (inactive)
- GI50 (EKVX): > 100 µM (inactive)
- GI50 (HCC 2998): > 100 µM (inactive)
- GI50 (HCT-116): > 100 µM (inactive)
- GI50 (HCT-15): > 100 µM
- GI50 (HL-60): > 100 µM (inactive)
- GI50 (HOP-62): > 100 µM (inactive)
- GI50 (HOP-92): > 100 µM (inactive)
- GI50 (HT-29): > 100 µM (inactive)
- GI50 (Hs-578T): > 100 µM (inactive)
- GI50 (IGROV-1): > 100 µM (inactive)
- GI50 (K562): > 100 µM (inactive)
- GI50 (KM12): > 100 µM (inactive)
- GI50 (M14): > 100 µM (inactive)
- GI50 (MDA-MB-231): > 100 µM (inactive)
- GI50 (MDA-MB-435): > 100 µM (inactive)
- GI50 (MOLT-4): > 100 µM (inactive)
- GI50 (NCI-H226): > 100 µM (inactive)
- GI50 (NCI-H23): > 100 µM (inactive)
- GI50 (NCI-H460): > 100 µM (inactive)
- GI50 (NCI-H522): > 100 µM (inactive)
- GI50 (NCI/ADR-RES): > 100 µM (inactive)
- GI50 (OVCAR-3): > 100 µM (inactive)
- GI50 (OVCAR-4): > 100 µM (inactive)
- GI50 (OVCAR-5): > 100 µM (inactive)
- GI50 (OVCAR-8): > 100 µM (inactive)
- GI50 (PC-3): > 100 µM (inactive)
- GI50 (RPMI-8226): > 100 µM (inactive)
- GI50 (RXF 393): > 100 µM (inactive)
- GI50 (SF-268): > 100 µM (inactive)
- GI50 (SF-295): > 100 µM (inactive)
- GI50 (SF-539): > 100 µM (inactive)
- GI50 (SK-MEL-28): > 100 µM (inactive)
- GI50 (SK-MEL-2): > 100 µM (inactive)
- GI50 (SK-MEL-5): > 100 µM (inactive)
- GI50 (SN12C): > 100 µM (inactive)
- GI50 (SNB-19): > 100 µM (inactive)
- GI50 (SNB-75): > 100 µM (inactive)
- GI50 (SW-620): > 100 µM (inactive)
- GI50 (T47D): > 100 µM (inactive)
- GI50 (TK-10): > 100 µM (inactive)
- GI50 (U-251): > 100 µM (inactive)
- GI50 (UACC-257): > 100 µM (inactive)
- GI50 (UACC-62): > 100 µM (inactive)
- GI50 (UO-31): > 100 µM (inactive)

SMILES: CC(=O)/N=C1\C=C(NC(C)=O)C(=O)c2ccccc21
- GI50 (786-0): 1.81 µM (inactive)
- GI50 (A498): 15.2 µM (inactive)
- GI50 (A549): 4.62 µM (inactive)
- GI50 (ACHN): 1.45 µM (inactive)
- GI50 (BT-549): 2.17 µM (inactive)
- GI50 (CAKI-1): 1.95 µM (inactive)
- GI50 (CCRF-CEM): 2.84 µM (inactive)
- GI50 (COLO 205): 1.94 µM (inactive)
- GI50 (EKVX): 5.19 µM (inactive)
- GI50 (HCC 2998): 17.7 µM (inactive)
- GI50 (HCT-116): 1.49 µM (inactive)
- GI50 (HCT-15): 1.89 µM
- GI50 (HL-60): 1.85 µM (inactive)
- GI50 (HOP-62): 18.5 µM (inactive)
- GI50 (HOP-92): 1.45 µM (inactive)
- GI50 (HT-29): 2.58 µM (inactive)
- GI50 (Hs-578T): 6.28 µM (inactive)
- GI50 (IGROV-1): 1.71 µM (inactive)
- GI50 (K562): 2.04 µM (inactive)
- GI50 (KM12): 5.41 µM (inactive)
- GI50 (LOX IMVI): 1.68 µM (inactive)
- GI50 (M14): 1.73 µM (inactive)
- GI50 (MCF7): 1.76 µM (inactive)
- GI50 (MDA-MB-435): 1.82 µM (inactive)
- GI50 (MDA-N): 1.9 µM (inactive)
- GI50 (MOLT-4): 1.98 µM (inactive)
- GI50 (Malme-3M): 1.93 µM (inactive)
- GI50 (NCI-H226): 7.96 µM (inactive)
- GI50 (NCI-H23): 0.451 µM (active)
- GI50 (NCI-H460): 5.08 µM (inactive)
- GI50 (NCI-H522): 1.33 µM (inactive)
- GI50 (NCI/ADR-RES): 2.51 µM (inactive)
- GI50 (OVCAR-3): 2.01 µM (inactive)
- GI50 (OVCAR-4): 1.66 µM (inactive)
- GI50 (OVCAR-5): 2.13 µM (inactive)
- GI50 (OVCAR-8): 2.21 µM (inactive)
- GI50 (PC-3): 2.9 µM (inactive)
- GI50 (RPMI-8226): 1.39 µM (inactive)
- GI50 (RXF 393): 2.21 µM (inactive)
- GI50 (SF-268): 3.18 µM (inactive)
- GI50 (SF-295): 3.68 µM (inactive)
- GI50 (SF-539): 2.37 µM (inactive)
- GI50 (SK-MEL-28): 3 µM (inactive)
- GI50 (SK-MEL-2): 3.09 µM (inactive)
- GI50 (SK-MEL-5): 1.64 µM (inactive)
- GI50 (SK-OV-3): 6.79 µM (inactive)
- GI50 (SN12C): 1.78 µM (inactive)
- GI50 (SNB-19): 3.03 µM (inactive)
- GI50 (SNB-75): 2.54 µM (inactive)
- GI50 (SR): 1.52 µM (inactive)
- GI50 (SW-620): 1.93 µM (inactive)
- GI50 (T47D): 1.48 µM (inactive)
- GI50 (TK-10): 5.64 µM (inactive)
- GI50 (U-251): 2.99 µM (inactive)
- GI50 (UACC-257): 1.81 µM (inactive)
- GI50 (UACC-62): 2.35 µM (inactive)
- GI50 (UO-31): 2.04 µM (inactive)
